“Also recorded” adds a separate entry of the source.
What was measured:
[1] = tested on: TIB-71 RAW 264.7 macrophages; experiment: MTT cytotoxicity assay; format: cell-based, Mus musculus; conditions: for cytotoxicity (MTT), broad screening / cytotoxicity (MTT) / concentration from which NET1 and NET2 displayed similar cytotoxicity: LPS-free; for cytotoxicity (MTT), broad screening: peptide 0.125-64 µg/mL; for cytotoxicity (MTT), broad screening / cytotoxicity (MTT): triplicates; for cytotoxicity (MTT): peptide concentrations up to 4 μg/mL; for concentration from which NET1 and NET2 displayed similar cytotoxicity: screening 64 to 0.125 µg/mL; for increase of toxicity compared to that in the absence of LPS: with LPS (1, 10, 100 ng/mL) versus without LPS
Protocol: The TIB-71 RAW 264.7 macrophage line, which was obtained from Mus musculus, was used in this study, and this cell line was supplied by ATCC (Manassas, VA, USA). The MTT Cell Proliferation Kit (Sigma–Aldrich, St. Louis, MO, USA), a colorimetric method, was used to evaluate the damage caused by the peptides in eukaryotic cells. TIB-71 RAW 264.7 macrophages were revived under appropriate culture conditions (37°C, 5% CO2) to prepare for the experiment. The final concentration of peptides ranged 0.125–64 μg/mL. Samples were examined in triplicates for each concentration. Cells incubated without peptide treatment under the same conditions were used as the control. Magainin 2 (Mag2), a known natural AMP with no cytotoxic effects, was used as a positive control. The results were obtained using a 96-well plate reader at 550 and 690 nm.

[2] = tested on: IL-6 expression in TIB-71 macrophages; experiment: IL-6 expression by western blotting; format: cell-based, mouse; conditions: for IL-6 expression: peptide alone, normalized to β-actin, versus unstimulated cells, repeated twice
Protocol: Protein was extracted from TIB-71 cells for use in western blotting. For this purpose, the supernatant of the cells grown in the appropriate environment was separated for ELISA, whereas protein was extracted from the cellular pellets. Protein obtained using the Protein Extraction Kit (Abcam, Cambridge, UK) was prepared for western blotting. The concentrations of protein samples were determined using the Pierce BCA protein assay kit (Thermo Fisher Scientific). The results were analyzed by reading them on a 96-well plate reader at 565 nm. IL-6 was separated by 12% (w/v) SDS-PAGE and transferred onto a PVDF membrane using the wet transfer technique to compare the expression levels of the markers. Proteins were measured using horseradish peroxidase (HRP)-based clarity western ECL substrate and read using ChemiDoc devices. The area of the bands obtained in the western blotting results was computed using Image Lab software. Specifically, the volume occupied by the bands on the membrane was determined, and the band volume of IL-6 was normalized to that of β-actin to assess protein expression in a semiquantitative manner. Microsoft Excel was used for the semiquantitative analysis. IL-6 secretion by mouse macrophages in response to AMP exposure was examined by GraphPad Prism 9.0.0 one-way ANOVA test (GraphPad, La Jolla, CA, USA).

[3] = tested on: IFN-γ secretion from TIB-71 macrophages; experiment: IFN-γ secretion by ELISA; format: cell-based, mouse
Protocol: Within the scope of the ELISA study, the effect of varying concentrations of the peptides we synthesized on the mouse macrophage cell line was examined. In this study, a cell line that was not treated with AMPs and LPS, a cell line treated only with AMPs, a cell line treated only with LPS, and a cell line treated with both LPS and AMPs were used. To find the changing TNF-α ratio after incubation, the kit named Mouse Tumor Necrosis Factor α ELISA Kit-RAB0477 (Sigma-Aldrich) was applied according to the protocol. Graphpad Prism (9.0.0) was utilized for performing a one-way ANOVA test (α = 0.05) for the statistical analysis. Similarly, ELISA was applied to measure the change in IFN-γ levels in response to the peptides and LPS. In this experiment, the Mouse IFN-γ ELISA Kit-E-EL-[…] was applied according to the specified kit protocol, and the results were evaluated.

[4] = tested on: TNF-α secretion from TIB-71 macrophages; experiment: TNF-α secretion by ELISA; format: cell-based, mouse; conditions: for TNF-α response: peptide together with LPS (50 ng/mL), NET1 versus peptide only, NET2 at 2 or 4 µg/mL
Protocol: Within the scope of the ELISA study, the effect of varying concentrations of the peptides we synthesized on the mouse macrophage cell line was examined.
In this study, a cell line that was not treated with AMPs and LPS, a cell line treated only with AMPs, a cell line treated only with LPS, and a cell line treated with both LPS and AMPs were used. To find the changing TNF-α ratio after incubation, the kit named Mouse Tumor Necrosis Factor α ELISA Kit-RAB0477 (Sigma–Aldrich) was applied according to the protocol. Graphpad Prism (9.0.0) was utilized for performing a one-way ANOVA test (α = 0.05) for the statistical analysis.

[5] = peptide 0.5 µg/mL, response to decreasing LPS concentrations (1, 10, 100 ng/mL)
[6] = peptide 2 µg/mL, LPS 1, 10, 100 ng/mL
[7] = peptide 4 µg/mL, LPS 1, 10, 100 ng/mL
[8] = peptide together with LPS (50 ng/mL)

Row | Substance | cytotoxicity (MTT), broad screening [1] | cytotoxicity (MTT) [1] | concentration from which NET1 and NET2 displayed similar cytotoxicity [1] [ng/mL] | cytotoxicity in the presence of LPS [1, 5] | cytotoxicity in the presence of LPS ([1]; peptide 1 µg/mL, LPS 1, 10, 100 ng/mL) | cytotoxicity in the presence of LPS [1, 6] | cytotoxicity in the presence of LPS [1, 7] | increase of toxicity compared to that in the absence of LPS ([1]; peptide 4 µg/mL) | IL-6 expression compared with the other groups ([2]; NET1 at the lowest concentration of 2 µg/mL) | IL-6 expression ([2]; no LPS) | IFN-γ secretion [3, 8] | TNF-α response [4] | IL-6 expression lower than that in NET1-treated cells ([2]; NET2 used alone, no LPS) [%] | IL-6 expression in cells treated with LPS ([2]; peptide 8 µg/mL with LPS) | IL-6 expression in combination with LPS ([2]; peptide 2 and 4 µg/mL with LPS, versus the other groups) | IFN-γ secretion ([3]; peptide alone, LPS-free medium, three concentrations, versus control, one-way ANOVA) | TNF-α secretion ([4]; peptide alone, LPS-free medium)
1 | RLLLRLLRRLLRLLLR-NH2 [NET1, designed LL-37-like 16-amino acid antimicrobial peptide, …-NH2] | low cytotoxicity | did not cause significant cytotoxicity | 4000 | decreased NET1 cytotoxicity | lower cytotoxicity | lower cytotoxicity than NET2 | lowest toxicity | threefold | threefold lower | decreased | decrease IFN-γ expression | did not differ | – | – | – | – | –
2 | RLLLRLLRRLLRLLLR-NH2 [NET2, designed LL-37-like 16-amino acid antimicrobial peptide, …-NH2] | low cytotoxicity; also recorded: lower toxicity than the other peptides | did not cause significant cytotoxicity | 4000 | increased cytotoxicity | – | increased with as the LPS concentration decreased | increased as the LPS concentration decreased | tenfold | – | reduced IL-6 expression | significantly increased | increased significantly | 50 | anti-inflammatory effect | significantly increased | lower IFN-γ expression than NET1; also recorded: significantly increased | decreased with decreasing peptide concentrations
